What was measured:
[1] = molecular target: T1, Arabidopsis HPPD variant M335H, P336A, E363Q (Arabidopsis thaliana, UniProt P93836, E363Q/M335H/P336A); assay: HPPD activity assay, Arabidopsis HPPD mutant M335H, P336A, E363Q; assay type: biochemical; settings: normalized on Arabidopsis wild-type HPPD
T1 construct: PCR-based site directed mutagenesis of pEXP5-NT/TOPO®-AtHPPD is done; His6 (N); made in house; host or cells: E. coli BL21 (DE3)
Description: (§1) HPPD produces homogentisic acid and CO2 from 4-hydroxyphenylpyruvate (4-HPP) and O2. The activity assay for HPPD is based on the analysis of homogentisic acid by reversed phase HPLC.
(§2) The assay mixture can contain 150 mM potassium phosphate buffer pH 7.0, 50 mM L-ascorbic acid, 1 μM FeSO4 and 7 μg of purified enzyme in a total volume of 1 ml.
Inhibitors are dissolved in DMSO (dimethylsulfoxide) to a concentration of 20 mM or 0.5 mM, respectively. From this stock solution serial five-fold dilutions are prepared in DMSO, which are used in the assay. The respective inhibitor solution accounts for 1% of the assay volume. […] After a preincubation of 30 min the reaction is started by adding 4-HPP to a final concentration of 0.1 mM. The reaction is allowed to proceed for 120 min at room temperature. The reaction is stopped by addition of 100 μl of 4.5 M phosphoric acid.
Activities are normalized by setting the uninhibited enzyme activity to 100%. IC50 values are calculated using non-linear regression.
The assay mixture can contain 150 mM potassium phosphate buffer pH 7.0, 50 mM L-ascorbic acid, 100 μM Catalase (Sigma-Aldrich), 1 μM FeSO4 and 0.2 units of purified HPPD enzyme in a total volume of 505 μl. 1 unit is defined as the amount of enzyme that is required to produce 1 nmol of HGA per minute at 20° C.
Inhibitors are dissolved in DMSO (dimethylsulfoxide) to a concentration of 0.5 mM. […] IC50 values are calculated using non-linear regression. […]
Purified, mutant HPPD enzymes are obtained by the methods described above. […] Apparent michaelis constants (Km) and maximal reaction velocities (Vmax) are calculated by non-linear regression with the software GraphPad Prism 5 (GraphPad Software, La Jolla, USA) using a substrate inhibition model.
Field performance of the optimized HPPD enzyme, which is used as a herbicide tolerance trait may depend not only on its lack of sensitivity towards HPPD inhibiting herbicides but also on its activity. To assess the potential performance of a herbicide tolerance trait a tolerance index (TI) is calculated using the following formula: […]

Rhodococcus HPPD1 = assay: HPPD activity assay, Rhodococcus HPPD1; assay type: biochemical; settings: normalized on Arabidopsis wild-type HPPD
Description: as §1, §2
Inhibitors are dissolved in DMSO (dimethylsulfoxide) to a concentration of 20 mM or 0.5 mM, respectively. From this stock solution serial five-fold dilutions are prepared in DMSO, which are used in the assay. The respective inhibitor solution accounts for 1% of the assay volume. […]
Activities are normalized by setting the uninhibited enzyme activity to 100%. IC50 values are calculated using non-linear regression. […]
Inhibitors are dissolved in DMSO (dimethylsulfoxide) to a concentration of 0.5 mM. […] IC50 values are calculated using non-linear regression.
Using methods which are described in the above examples or well known in the art, purified, recombinant wildtype HPPD enzymes are characterized with respect to their kinetic properties and sensitivity towards HPPD inhibiting herbicides. Apparent michaelis constants (Km) and maximal reaction velocities (Vmax) are calculated by non-linear regression with the software GraphPad Prism 5 (GraphPad Software, La Jolla, USA) using a substrate inhibition model. […]

T1 sequence (P93836 whole entry M335H/P336A/E363Q): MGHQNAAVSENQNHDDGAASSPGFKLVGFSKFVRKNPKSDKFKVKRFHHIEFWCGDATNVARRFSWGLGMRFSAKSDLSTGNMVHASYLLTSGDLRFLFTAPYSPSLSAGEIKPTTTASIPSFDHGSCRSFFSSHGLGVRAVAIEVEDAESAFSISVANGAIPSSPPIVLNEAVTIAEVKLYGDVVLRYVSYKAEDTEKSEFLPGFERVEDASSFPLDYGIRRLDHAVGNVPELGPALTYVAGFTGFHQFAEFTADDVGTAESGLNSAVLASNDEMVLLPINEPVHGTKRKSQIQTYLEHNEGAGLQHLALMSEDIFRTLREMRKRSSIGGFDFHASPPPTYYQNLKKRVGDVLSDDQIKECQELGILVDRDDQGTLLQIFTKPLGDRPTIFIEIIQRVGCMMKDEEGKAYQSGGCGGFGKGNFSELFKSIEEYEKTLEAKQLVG

SMILES: CC1=NOC(c2c(Cl)ccc(C3=C(O)c4ncccc4C(C)(C)S3(=O)=O)c2Cl)C1 (stereo not shown) [Inhibitor 1, 7-[2,4-dichloro-3-(3-methyl-4,5-dihydroisoxazol-5-yl)phenyl]-5,5-dimethyl-6,6-dioxo-thiopyrano[4,3-b]pyridin-8-ol]
- Normalized tolerance index TI [1]: 5.5
- Normalized tolerance index TI (Rhodococcus HPPD1): 39

SMILES: COCCOCc1c(Cl)ccc(C2=C(O)c3ncccc3C(C)(C)S2(=O)=O)c1Cl [Inhibitor 3, 7-[2,4-dichloro-3-(2-methoxyethoxymethyl)phenyl]-5,5-dimethyl-6,6-dioxo-thiopyrano[4,3-b]pyridin-8-ol]
- Normalized tolerance index TI [1]: 0.3
- Normalized tolerance index TI (Rhodococcus HPPD1): 1.6

From US20140357487A1, “PLANTS HAVING INCREASED TOLERANCE TO HERBICIDES” (BASF SE, priority 2011, published 2014)
